In series [1] the test system is wheat (Triticum aestivum). Description: Test A postemergence. The series is classed as in vivo. The settings on record: Triticum aestivum, post-emergence, 240 h; for plant injury at 125 g/ha: 125 g ai/ha; for plant injury at 500 g/ha: 500 g ai/ha, visual injury, 0 to 100 scale (0 no effect, 100 complete control), approx. 10 d. Summed up:
(§1)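 Visual injury scores from 0, no effect, to 100, complete control, were assigned versus untreated controls roughly 10 d after treatment in the greenhouse. Test chemicals, formulated with surfactant in a non-phytotoxic solvent, were applied to planted seeds as a preemergence soil spray or postemergence to one- to two-leaf plants 2 to 10 cm tall, in loam–sand soil.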

Series [2] deals with blackgrass (Alopecurus myosuroides). Kind of series: Test A postemergence. The class given is in vivo. The settings on record: Alopecurus myosuroides, post-emergence, 240 h; for pest or weed control at 125 g/ha: 125 g ai/ha; for pest or weed control at 500 g/ha: 500 g ai/ha. Summed up: as §1
Series [3] concerns Kochia (Kochia scoparia). Description: Test A postemergence. The settings on record: Bassia scoparia, post-emergence, 240 h; for pest or weed control at 125 g/ha: 125 g ai/ha; for pest or weed control at 500 g/ha: 500 g ai/ha. The series is classed as in vivo. Summed up: as §1
Series [4] relates to corn (Zea mays). Description: Test A postemergence. The series is classed as in vivo. The settings on record: Zea mays, post-emergence, 240 h; for Corn plant response rating (crop injury, 0 = no effect, 100 = complete kill) at 125 g/ha / plant injury at 125 g/ha: 125 g ai/ha; for Corn plant response rating (crop injury, 0 = no effect, 100 = complete kill) at 500 g/ha: visual injury, approx. 10 d; for plant injury at 125 g/ha: read-out: Corn plant response rating (0 to 100 scale). In a few lines:
as §1

Series [5] concerns ragweed (common ragweed, Ambrosia elatior). Kind of series: Test A postemergence. The class given is in vivo. The settings on record: Ambrosia artemisiifolia, post-emergence, 240 h; for pest or weed control at 125 g/ha: 125 g ai/ha; for pest or weed control at 500 g/ha: 500 g ai/ha. Summed up:
as §1

Series [6] concerns Galium (catchweed bedstraw, Galium aparine). Kind of series: Test A postemergence. The series is classed as in vivo. The settings on record: Galium, post-emergence, 240 h; for pest or weed control at 125 g/ha: 125 g ai/ha; for pest or weed control at 500 g/ha: 500 g ai/ha. In a few lines:
as §1

The mark [7] stands for this setting: Postemergence, visual injury after approx. 10 d, 0 to 100 scale, 0 no effect, 100 complete control, read-out: Plant response rating, Wheat.
The mark [8] stands for this setting: Postemergence, read-out: Plant response rating, Wheat.
Where [9] appears, read: Postemergence, visual injury after approx. 10 d, 0 to 100 scale, 0 no effect, 100 complete control, read-out: Plant response rating, Blackgrass.
Where [10] appears, read: Postemergence, visual injury, 0 to 100 scale (0 no effect, 100 complete control), approx. 10 d, read-out: Plant response rating, Blackgrass.
Setting [11] is: Postemergence, visual injury after approx. 10 d, 0 to 100 scale, 0 no effect, 100 complete control, read-out: Plant response rating, Kochia.
[12] abbreviates: Postemergence, visual injury, 0 to 100 scale (0 no effect, 100 complete control), approx. 10 d, read-out: Plant response rating, Kochia.
Where [13] appears, read: Postemergence, visual injury after approx. 10 d, 0 to 100 scale, 0 no effect, 100 complete control.
The mark [14] stands for this setting: Postemergence, 500 g ai/ha, 0 to 100 scale (0 no effect, 100 complete control).
Setting [15] is: Postemergence, visual injury after approx. 10 d, 0 to 100 scale, 0 no effect, 100 complete control, read-out: Plant response rating, Ragweed.
Where [16] appears, read: Postemergence, visual injury, 0 to 100 scale (0 no effect, 100 complete control), approx. 10 d, read-out: Plant response rating, Ragweed.
Where [17] appears, read: Postemergence, visual injury after approx. 10 d, 0 to 100 scale, 0 no effect, 100 complete control, read-out: Plant response rating, Galium.
The mark [18] stands for this setting: Postemergence, visual injury, 0 to 100 scale (0 no effect, 100 complete control), approx. 10 d, read-out: Plant response rating, Galium.

Where two headings read alike, the source gives them in different places.

`Cc1c(F)cccc1NC(=O)[C@H]1C(=O)N(C)C[C@@H]1c1ccc(C(F)(F)F)cc1` [Compound 1386] came in with a melting point of 156 to 160 °C. Further, the plant injury at 125 g/ha in series [1] (setting [7]) was determined as 50%. Also, the plant injury at 500 g/ha in series [1] (setting [8]) was 60%. Moreover, in series [2] (setting [9]), the pest or weed control at 125 g/ha was determined as 70%. The pest or weed control at 500 g/ha in series [2] (setting [10]) was determined as 80%. The pest or weed control at 125 g/ha in series [3] (setting [11]) was 70%. Besides, the pest or weed control at 500 g/ha in series [3] (setting [12]) amounted to 70%. In addition, the Corn plant response rating (crop injury, 0 = no effect, 100 = complete kill) at 125 g/ha in series [4] (setting [13]) was found to be 70%. Further, the Corn plant response rating (crop injury, 0 = no effect, 100 = complete kill) at 500 g/ha in series [4] (setting [14]) stood at 80%. For the same compound, the pest or weed control at 125 g/ha in series [5] (setting [15]) came to 20%. In addition, the pest or weed control at 500 g/ha in series [5] (setting [16]) came to 50%. Further, the pest or weed control at 125 g/ha in series [6] (setting [17]) worked out at 60%. Moreover, the pest or weed control at 500 g/ha in series [6] (setting [18]) was 60%.
Compound `O=C1NC[C@H](c2cnc(C(F)(F)F)nc2)[C@H]1C(=O)Nc1cccc(F)c1F` [Compound 1382] showed a melting point of 170 to 173 °C. Moreover, the plant injury at 125 g/ha in series [1] (Postemergence, visual rating about 10 d after treatment, read-out: Wheat plant response rating (0 to 100 scale)) was found to be 0%. Also, the plant injury at 500 g/ha in series [1] (setting [8]) turned out to be 0%. The pest or weed control at 125 g/ha in series [2] (Postemergence, visual rating about 10 d after treatment, read-out: Blackgrass plant response rating (0 to 100 scale)) came to 0%. Further, in series [2] (setting [10]), the pest or weed control at 500 g/ha is 0%. The pest or weed control at 125 g/ha in series [3] (Postemergence, visual rating about 10 d after treatment, read-out: Kochia plant response rating (0 to 100 scale)) worked out at 0%. For the same compound, the pest or weed control at 500 g/ha in series [3] (setting [12]) came to 0%. In addition, in series [4] (Postemergence, visual rating about 10 d after treatment), the plant injury at 125 g/ha was determined as 0%. Besides, the Corn plant response rating (crop injury, 0 = no effect, 100 = complete kill) at 500 g/ha in series [4] (setting [14]) came to 0%. The pest or weed control at 125 g/ha in series [5] (Postemergence, visual rating about 10 d after treatment, read-out: Ragweed plant response rating (0 to 100 scale)) was found to be 0%. The pest or weed control at 500 g/ha in series [5] (setting [16]) is 0%. Besides, the pest or weed control at 125 g/ha in series [6] (Postemergence, visual rating about 10 d after treatment, read-out: Galium plant response rating (0 to 100 scale)) was 0%. The pest or weed control at 500 g/ha in series [6] (setting [18]) turned out to be 30%.
`CN1C[C@H](c2ccc(C(F)(F)F)cc2)[C@@H](C(=O)Nc2cccc(Cl)c2F)C1=O` [Compound 1238] returned a melting point of 138 to 141 °C. The plant injury at 125 g/ha in series [1] (postemergence, visual injury vs untreated controls after approx. 10 d, 0 = no effect, 100 = complete control, read-out: Wheat plant response rating (0 to 100 scale)) came out at 0%. Moreover, the pest or weed control at 125 g/ha in series [2] (postemergence, visual injury vs untreated controls after approx. 10 d, 0 = no effect, 100 = complete control, read-out: Blackgrass plant response rating (0 to 100 scale)) is 30%. Besides, in series [2] (postemergence, 0 to 100 scale, 0 is no effect, 100 is complete control, read-out: Blackgrass plant response rating), the pest or weed control at 500 g/ha turned out to be 50%. Besides, the pest or weed control at 125 g/ha in series [3] (postemergence, visual injury vs untreated controls after approx. 10 d, 0 = no effect, 100 = complete control, read-out: Kochia plant response rating (0 to 100 scale)) was 30%. In series [3] (postemergence, 0 to 100 scale, 0 is no effect, 100 is complete control, read-out: Kochia plant response rating), the pest or weed control at 500 g/ha turned out to be 50%. Further, the plant injury at 125 g/ha in series [4] (postemergence, visual injury vs untreated controls after approx. 10 d, 0 = no effect, 100 = complete control) is 20%. The plant injury at 500 g/ha in series [4] (500 g ai/ha, postemergence, 0 to 100 scale, 0 is no effect, 100 is complete control, read-out: Corn plant response rating) was determined as 40%. Further, in series [5] (postemergence, visual injury vs untreated controls after approx. 10 d, 0 = no effect, 100 = complete control, read-out: Ragweed plant response rating (0 to 100 scale)), the pest or weed control at 125 g/ha was determined as 0%. For the same compound, the pest or weed control at 500 g/ha in series [5] (postemergence, 0 to 100 scale, 0 is no effect, 100 is complete control, read-out: Ragweed plant response rating) worked out at 20%. Also, in series [6] (postemergence, visual injury vs untreated controls after approx. 10 d, 0 = no effect, 100 = complete control, read-out: Galium plant response rating (0 to 100 scale)), the pest or weed control at 125 g/ha was 20%. Moreover, the pest or weed control at 500 g/ha in series [6] (postemergence, 0 to 100 scale, 0 is no effect, 100 is complete control, read-out: Galium plant response rating) came out at 50%.
`O=C1NC[C@H](c2nccc(C(F)(F)F)n2)[C@H]1C(=O)Nc1cccc(F)c1F` [Compound 1392]: the melting point was 154 to 158 °C. Moreover, the plant injury at 125 g/ha in series [1] (setting [7]) came to 0%. Also, in series [1] (setting [8]), the plant injury at 500 g/ha stood at 30%. Moreover, in series [2] (setting [9]), the pest or weed control at 125 g/ha is 0%. In series [2] (setting [10]), the pest or weed control at 500 g/ha is 0%. The pest or weed control at 125 g/ha in series [3] (setting [11]) was 0%. Besides, the pest or weed control at 500 g/ha in series [3] (setting [12]) was 0%. In series [4] (setting [13]), this compound had a Corn plant response rating (crop injury, 0 = no effect, 100 = complete kill) at 125 g/ha of 0%. For the same compound, in series [4] (setting [14]), the Corn plant response rating (crop injury, 0 = no effect, 100 = complete kill) at 500 g/ha was 20%. In series [5] (setting [15]), the pest or weed control at 125 g/ha was determined as 0%. Further, in series [5] (setting [16]), the pest or weed control at 500 g/ha was 0%. Moreover, the pest or weed control at 125 g/ha in series [6] (setting [17]) was 0%. The pest or weed control at 500 g/ha in series [6] (setting [18]) amounted to 0%.
Compound `C/C=C/C1CNC(=O)C1C(=O)Nc1cccc(F)c1F` (stereo not drawn) [Compound 793] yielded a melting point of 151 to 155 °C. For the same compound, the plant injury at 31 g/ha in series [1] (Postemergence, 31 g ai/ha, visual injury after approx. 10 d, 0 to 100 scale, 0 no effect, 100 complete control, read-out: Plant response rating, Wheat) stood at 0%. Further, the pest or weed control at 125 g/ha in series [2] (postemergence, visual injury after approximately 10 d, 0 to 100 scale (0 no effect, 100 complete control), read-out: Plant response rating, Blackgrass) amounted to 0%. Further, in series [2] (Postemergence, 31 g ai/ha, visual injury after approx. 10 d, 0 to 100 scale, 0 no effect, 100 complete control, read-out: Plant response rating, Blackgrass), the pest or weed control at 31 g/ha was 0%. For the same compound, the pest or weed control at 125 g/ha in series [3] (postemergence, visual injury after approximately 10 d, 0 to 100 scale (0 no effect, 100 complete control), read-out: Plant response rating, Kochia) is 0%. In series [3] (Postemergence, 31 g ai/ha, visual injury after approx. 10 d, 0 to 100 scale, 0 no effect, 100 complete control, read-out: Plant response rating, Kochia), the pest or weed control at 31 g/ha worked out at 0%. In addition, the Corn plant response rating (crop injury, 0 = no effect, 100 = complete kill) at 125 g/ha in series [4] (postemergence, visual injury after approximately 10 d, 0 to 100 scale (0 no effect, 100 complete control)) came to 0%. The Corn plant response rating (crop injury, 0 = no effect, 100 = complete kill) at 31 g/ha in series [4] (Postemergence, 31 g ai/ha, visual injury after approx. 10 d, 0 to 100 scale, 0 no effect, 100 complete control) stood at 0%. Besides, in series [5] (postemergence, visual injury after approximately 10 d, 0 to 100 scale (0 no effect, 100 complete control), read-out: Plant response rating, Ragweed), the pest or weed control at 125 g/ha was 0%. Moreover, in series [5] (Postemergence, 31 g ai/ha, visual injury after approx. 10 d, 0 to 100 scale, 0 no effect, 100 complete control, read-out: Plant response rating, Ragweed), the pest or weed control at 31 g/ha was found to be 0%. In series [6] (postemergence, visual injury after approximately 10 d, 0 to 100 scale (0 no effect, 100 complete control), read-out: Plant response rating, Galium), the pest or weed control at 125 g/ha stood at 0%. The pest or weed control at 31 g/ha in series [6] (Postemergence, 31 g ai/ha, visual injury after approx. 10 d, 0 to 100 scale, 0 no effect, 100 complete control, read-out: Plant response rating, Galium) was 0%.
